Columns and labels:
Assay type in all cases: in vivo
[1] = system: Alopecurus myosuroides (ALOMY); test: E. Herbicidal post-emergence efficacy, ALOMY
Outline: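 Compounds applied at 320 g/ha or less as a foliar spray (600 l/ha, 0.5% additive) to one-leaf-stage greenhouse plants grown in sandy loam. Damage is visually scored in percent relative to untreated plants after about 3 weeks.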

[2] = system: Lolium rigidum (LOLRI); test: B. Herbicidal post-emergence efficacy, LOLRI
Procedure: (§1) Seeds of mono- and dicotyledonous weed plants were placed in plastic pots in sandy loam soil (doubly sown with in each case one species of mono- or dicotyledonous weed plants per pot), covered with soil and cultivated in a greenhouse under controlled growth conditions. 2 to 3 weeks after sowing, the test plants were treated at the one-leaf stage. The compounds of the invention, formulated in the form of wettable powders (WP) or as emulsion concentrates (EC), were applied onto the green parts of the plants as aqueous suspension or emulsion with addition of 0.5% additive at a water application rate of 600 liters per hectare (converted). After the test plants had been kept in the greenhouse under optimum growth conditions for about 3 weeks, the activity of the preparations was rated visually in comparison to untreated controls.
(§2) For example, • 100% efficacy=plants have died, • 0% efficacy=like untreated control plants
(§3) Tables B1a to B12c below show the effects of selected inventive compounds of the general formula (I) according to table 1 on various harmful plants at an application rate corresponding to 1280 g/ha or less, which were obtained by the experimental procedure mentioned above.

[3] = system: Pharbitis purpurea (PHBPU); test: C. Herbicidal pre-emergence efficacy, PHBPU; conditions: scored after about 3 weeks
Excerpt: Seeds of monocotyledonous and dicotyledonous weed plants and crop plants were placed in plastic or organic planting pots and covered with soil. The compounds of the invention, formulated in the form of wettable powders (WP) or as emulsion concentrates (EC), were then applied to the surface of the covering soil as aqueous suspension or emulsion with addition of 0.5% additive at a water application rate equivalent to 600 l/ha (converted). After the treatment, the pots were placed in a greenhouse and kept under good growth conditions for the test plants. After about 3 weeks, the efficacy of the preparations was scored visually in comparison with untreated controls as percentages. For example, • 100% efficacy=plants have died, • 0% efficacy=like untreated control plants.
Tables C1a to C14b below show the effects of selected compounds of the general formula (I) according to table 1 on various harmful plants at an application rate corresponding to 320 g/ha or less, which were obtained by the experimental procedure mentioned above.

[4] = system: Zea mays (ZEAMX); test: D. Pre-emergence effect on useful plants, ZEAMX; conditions: useful plant, application rate 80 g/ha
Outline: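 Seeds sown in pots and covered with soil; WP or EC formulations sprayed on the soil surface as aqueous suspension/emulsion with 0.5% additive at 600 l/ha water. Plants grown in greenhouse; crop damage scored visually after about 3 weeks as % versus untreated controls (100% = dead, 0% = like control).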

[5] = system: Digitaria sanguinalis (DIGSA); test: B. Herbicidal post-emergence efficacy, DIGSA; conditions: rated visually after about 3 weeks
Outline: (§4)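 Weeds grown in sandy loam in greenhouse pots, sprayed at one-leaf stage (2–3 weeks after sowing) with WP or EC formulations as aqueous suspension/emulsion plus 0.5% additive at 600 L/ha water, rates up to 1280 g/ha. Visual efficacy rated about 3 weeks later versus untreated controls (0% = like control, 100% = dead).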

[6] = system: Digitaria sanguinalis (DIGSA); test: E. Herbicidal post-emergence efficacy, DIGSA
Procedure: Seeds of monocotyledonous and dicotyledonous weeds and crop plants were placed in sandy loam in plastic or organic planting pots, covered with soil and cultivated in a greenhouse under controlled growth conditions. 2 to 3 weeks after sowing, the test plants were treated at the one-leaf stage. The compounds of the invention, formulated in the form of wettable powders (WP) or as emulsion concentrates (EC), were then sprayed onto the green parts of the plants as aqueous suspension or emulsion with addition of 0.5% additive at a water application rate of 600 l/ha (converted). After the test plants had been kept in the greenhouse under optimum growth conditions for about 3 weeks, the activity of the preparations was rated visually in comparison to untreated controls.
For example, • 100% efficacy=plants have died, • 0% action=like untreated control plants.
Tables E1a to E12b below show the effects of selected compounds of the general formula (I) according to table 1 on various harmful plants at an application rate corresponding to 320 g/ha or less, which were obtained by the experimental procedure mentioned above.

[7] = system: Stellaria media (STEME); test: B. Herbicidal post-emergence efficacy, STEME
Outline: as §4

[8] = system: Matricaria inodora (MATIN); test: C. Herbicidal pre-emergence efficacy, MATIN; conditions: scored after about 3 weeks
Outline: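 Pre-emergence test: formulated compounds sprayed as aqueous suspension or emulsion with 0.5% additive at 600 l/ha onto soil covering sown seeds, at rates corresponding to 320 g/ha or less. After about 3 weeks in greenhouse, efficacy scored visually as percent versus untreated controls (100% = plants dead).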

[9] = system: Alopecurus myosuroides (ALOMY); test: B. Herbicidal post-emergence efficacy, ALOMY; conditions: rated visually after about 3 weeks
Procedure: as §1, §2, §3

Row | Pre-emergence efficacy against ZEAMX in % [4] [%] | Compound | Post-emergence efficacy against ALOMY in % ([1]; application rate 320 g/ha) [%] | Post-emergence efficacy against LOLRI ([2]; 320 g/ha) [%] | Post-emergence efficacy against LOLRI ([2]; 1280 g/ha) [%] | Pre-emergence efficacy against PHBPU ([3]; 80 g/ha) [%] | Pre-emergence efficacy against PHBPU ([3]; 320 g/ha) [%] | Post-emergence efficacy against DIGSA in % ([5]; 320 g/ha) [%] | Post-emergence efficacy against DIGSA in % ([5]; 1280 g/ha) [%] | Post-emergence efficacy against DIGSA in % ([6]; application rate 320 g/ha) [%] | Post-emergence efficacy against STEME ([7]; 80 g/ha) [%] | Post-emergence efficacy against STEME ([7]; 320 g/ha) [%] | Post-emergence efficacy against STEME ([7]; 1280 g/ha) [%] | Pre-emergence efficacy against MATIN ([8]; 80 g/ha) [%] | Pre-emergence efficacy against MATIN ([8]; 320 g/ha) [%] | Post-emergence efficacy against ALOMY in % ([9]; 1280 g/ha) [%] | Post-emergence efficacy against ALOMY in % ([1]; application rate 80 g/ha) [%] | Post-emergence efficacy against DIGSA in % ([6]; application rate 80 g/ha) [%] | Post-emergence efficacy against ALOMY in % ([9]; 320 g/ha) [%]
1 | 0 | O=S(=O)(CCC(F)(F)F)Oc1c(F)cccc1Oc1ncc(Cl)cn1 [Example I-48] | 100 | 90 | 90 | 100 | 100 | 90 | 90 | 100 | 90 | 90 | 90 | 100 | 100 | 90 | – | – | –
2 | – | O=S(=O)(CC1CC(F)(F)C1)Oc1c(F)cccc1Oc1ncc(Cl)cn1 [Example I-53] | 100 | – | 90 | 100 | 100 | 90 | 90 | 90 | 90 | 90 | 90 | – | 90 | 90 | 90 | 90 | 90

From US20240174618A1, “SUBSTITUTED (2-HETEROARYLOXYPHENYL)SULFONATES, SALTS THEREOF AND THEIR USE AS HERBICIDAL AGENTS” (Bayer Aktiengesellschaft, priority 2021, published 2024)
